According to patent US10173991B2, “Sulfone amide linked benzothiazole inhibitors of endothelial lipase” (BRISTOL-MYERS SQUIBB COMPANY, priority 2014, dated 2019):
pIC50: −log10 of the molar value.

molecular target: Endothelial lipase (EL) (Homo sapiens (Human), UniProt Q9Y5X9); assay: Endothelial lipase (EL) enzymatic assay with fluorescent substrate A10070 in DMPG vesicles; assay type: biochemical; settings: not given
Summary of the method: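 EL from conditioned medium of HT-1080 cells engineered to overexpress endogenous EL; HL partially purified from conditioned medium of HL-overexpressing COS cells. Enzyme preincubated with compound 30 min at 37° C in 50 mM HEPES pH 8.0, 50 mM NaCl, 1 mM CaCl2; DMPG vesicles carrying FRET substrate (0.11 mole fraction) then added.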

Endothelial lipase (EL), sequence (Q9Y5X9 21-500): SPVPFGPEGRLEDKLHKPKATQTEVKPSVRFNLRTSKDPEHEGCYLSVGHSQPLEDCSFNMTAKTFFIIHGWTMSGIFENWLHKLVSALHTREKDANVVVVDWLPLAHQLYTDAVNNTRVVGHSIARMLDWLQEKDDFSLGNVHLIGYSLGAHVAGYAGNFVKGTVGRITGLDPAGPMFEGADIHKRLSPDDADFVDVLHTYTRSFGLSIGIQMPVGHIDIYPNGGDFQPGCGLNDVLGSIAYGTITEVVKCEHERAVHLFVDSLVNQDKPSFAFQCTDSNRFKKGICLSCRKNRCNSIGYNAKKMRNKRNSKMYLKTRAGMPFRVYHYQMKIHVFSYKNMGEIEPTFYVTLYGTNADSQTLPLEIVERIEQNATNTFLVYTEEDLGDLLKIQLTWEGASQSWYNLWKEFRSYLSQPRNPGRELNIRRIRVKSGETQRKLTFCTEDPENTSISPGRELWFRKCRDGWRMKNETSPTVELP

Question: How did the pIC50 turn out when `O=C(CNC(=O)C(c1nc2ccc(-c3ccc4c(c3)CN(C3CC3)C4=O)cc2s1)S(=O)(=O)c1ccc(F)cc1)NC1CC1` (centres unmarked) [Example 597, 2-[6-(2-cyclopropyl-1-oxo-2,3-dihydro-1H-isoindol-5-yl)-1,3-benzothiazol-2-yl]-N-[(cyclopropyl-carbamoyl)methyl]-2-(4-fluorobenzene-sulfonyl)acetamide] was run?
Answer: 8.15

Question: How did the pIC50 turn out when `O=C(CNC(=O)C(c1nc2ccc(-c3ccnc(O)c3)cc2s1)S(=O)(=O)c1ccc(F)cc1)NC1CC1` (centres unmarked) [Example 599, N-[(cyclopropyl-carbamoyl)methyl]-2-(4-fluorobenzene-sulfonyl)-2-[6-(2-hydroxypyridin-4-yl)-1,3-benzothiazol-2-yl]acetamide] was run?
Answer: 7.57

Question: How did the pIC50 turn out when `COCCS(=O)(=O)C(C(=O)NCC(=O)NC1CC1)c1nc2ccc(-c3ccnc(O)c3)cc2s1` (centres unmarked) [Example 600, N-[(cyclopropyl-carbamoyl)methyl]-2-[6-(2-hydroxypyridin-4-yl)-1,3-benzothiazol-2-yl]-2-(2-methoxyethane-sulfonyl)acetamide] was run?
Answer: 7.85

Question: `CS(=O)(=O)C(C(=O)NCC(=O)NC1CC1)c1nc2cc(OC(F)F)c(-c3ccc(F)nc3)cc2s1` (centres unmarked) [Example 602, N-[(cyclopropyl-carbamoyl)methyl]-2-[5-(difluoromethoxy)-6-(6-fluoropyridin-3-yl)-1,3-benzothiazol-2-yl]-2-methanesulfonyl-acetamide] was tested. Which pIC50 did it give?
Answer: 7.74

Question: With `Cc1cc(-c2cc3sc(C(C(=O)NCC(=O)NC4CC4)S(C)(=O)=O)nc3cc2OC(F)F)cnn1` (centres unmarked) [Example 604, N-[(cyclopropyl-carbamoyl)methyl]-2-[5-(difluoromethoxy)-6-(6-methylpyridazin-4-yl)-1,3-benzothiazol-2-yl]-2-methanesulfonyl-acetamide] as the compound, how does the pIC50 read?
Answer: 7.57

Question: How did the pIC50 turn out when `CS(=O)(=O)C(C(=O)NCC(=O)NC1CC1)c1nc2cc(OC(F)F)c(-c3cccc(-n4cccn4)c3)cc2s1` (centres unmarked) [Example 605, N-[(cyclopropyl-carbamoyl)methyl]-2-[5-(difluoromethoxy)-6-[3-(1H-pyrazol-1-yl)phenyl]-1,3-benzothiazol-2-yl]-2-methanesulfonyl-acetamide] was run?
Answer: 8.52

Question: With `CC(C)n1cc(-c2cc3sc(C(C(=O)NCC(=O)NC4CC4)S(C)(=O)=O)nc3cc2OC(F)F)ccc1=O` (centres unmarked) [Example 606] as the compound, how does the pIC50 read?
Answer: 8.40

Question: With `COC(=O)Nc1ccc(-c2cc3sc(C(C(=O)NCC(=O)NC4CC4)S(C)(=O)=O)nc3cc2OC(F)F)cc1` (centres unmarked) [Example 607, methyl N-{4-[2-({[(cyclopropyl-carbamoyl)methyl]carbamoyl} (methanesulfonyl)methyl)-5-(difluoromethoxy)-1,3-benzothiazol-6-yl]phenyl} carbamate] as the compound, how does the pIC50 read?
Answer: 8.30

Question: How did the pIC50 turn out when `CS(=O)(=O)C(C(=O)NCC(=O)NC1CC1)c1nc2ccc(-c3ccccc3)cc2s1` (centres unmarked) [Example 608, N-[(cyclopropyl-carbamoyl)methyl]-2-methanesulfonyl-2-(6-phenyl-1,3-benzothiazol-2-yl)acetamide] was run?
Answer: 6.82

Question: `CS(=O)(=O)C(C(=O)NCC(=O)NC1CC1)c1nc2cc(F)c(-c3ccccc3)cc2s1` (centres unmarked) [Example 609, N-[(cyclopropyl-carbamoyl)methyl]-2-(5-fluoro-6-phenyl-1,3-benzothiazol-2-yl)-2-methanesulfonyl-acetamide] was tested. Which pIC50 did it give?
Answer: 8.70

Question: With `CS(=O)(=O)C(C(=O)NCC(=O)NC1CC1)c1nc2cc(-c3ccccc3)ccc2s1` (centres unmarked) [Example 610, N-[(cyclopropyl-carbamoyl)methyl]-2-methanesulfonyl-2-(5-phenyl-1,3-benzothiazol-2-yl)acetamide] as the compound, how does the pIC50 read?
Answer: 7.40

Question: `COCCS(=O)(=O)C(C(=O)NCC(=O)NC1CC1)c1nc2cc(-c3ccccc3)c(F)cc2s1` (centres unmarked) [Example 612, N-[(cyclopropyl-carbamoyl)methyl]-2-(6-fluoro-5-phenyl-1,3-benzothiazol-2-yl)-2-(2-methoxyethane-sulfonyl)acetamide] was tested. Which pIC50 did it give?
Answer: 8.52

Question: “propan-2-yl N-{4- [2-({[(cyclopropyl- carbamoyl)methyl] carbamoyl}(2- methoxyethane- sulfonyl)methyl)- 5-fluoro-1,3- benzothiazol- 6-yl]phenyl} carbamate [Example 540]” was tested. Which pIC50 did it give?
Answer: 8.70

same assay, conditions: EL from conditioned media of HT-1080 cells; 30 min preincubation at 37° C.

Question: How did the pIC50 turn out when `COCCNC(=O)CNC(=O)C(c1nc2ccc(-c3ccc4c(c3)CN(C3CC3)C4=O)cc2s1)S(=O)(=O)c1ccc(F)cc1` (centres unmarked) [Example 595, 2-(6-(2-Cyclopropyl-1-oxoisoindolin-5-yl)benzo[d]thiazol-2-yl)-2-((4-fluorophenyl)sulfonyl)-N-(2-((2-methoxyethyl)amino)-2-oxoethyl)] was run?
Answer: 7.62

Question: How did the pIC50 turn out when `COCCS(=O)(=O)C(C(=O)NCC(=O)NC1CC1)c1nc2ccc(-c3ccnc(O)c3F)cc2s1` (centres unmarked) [Example 598, N-(2-(Cyclopropylamino)-2-oxoethyl)-2-(6-(3-fluoro-2-hydroxypyridin-4-yl)benzo[d]thiazol-2-yl)-2-((2-methoxyethyl)sulfonyl)acetamide] was run?
Answer: 7.00

Question: `Cc1ncc(-c2cc3sc(C(C(=O)NCC(=O)NC4CC4)S(C)(=O)=O)nc3cc2OC(F)F)cn1` (centres unmarked) [Example 601, N-[(Cyclopropylcarbamoyl)methyl]-2-[5-(difluoromethoxy)-6-(2-methylpyrimidin-5-yl)-1,3-benzothiazol-2-yl]-2-methanesulfonylacetamide] was tested. Which pIC50 did it give?
Answer: 7.72

same assay, conditions: reference compounds; EL from conditioned media of HT-1080 cells; 30 min preincubation at 37° C.

Question: With `CC(C)c1cc(CNC(=O)C(C)(C)c2nc3ccc(-c4ccccc4)cc3s2)on1` [Reference 2, N-((3-Isopropylisoxazol-5-yl)methyl)-2-methyl-2-(6-phenylbenzo[d]thiazol-2-yl)propanamide, reference compound] as the compound, how does the pIC50 read?
Answer: < 4.21
